Assay [1] deals with JAK1 (recombinant purified GST-tagged catalytic domain) (Homo sapiens (Human), UniProt P23458). Kind of assay: biochemical.
Assay [2] has as its target JAK2 (recombinant purified GST-tagged catalytic domain) (Homo sapiens (Human), UniProt O60674). Kind of assay: biochemical.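 Also: biochemical JAK kinase assay with HTRF detection.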

Sequence of JAK2 (recombinant purified GST-tagged catalytic domain) (O60674 849-1124): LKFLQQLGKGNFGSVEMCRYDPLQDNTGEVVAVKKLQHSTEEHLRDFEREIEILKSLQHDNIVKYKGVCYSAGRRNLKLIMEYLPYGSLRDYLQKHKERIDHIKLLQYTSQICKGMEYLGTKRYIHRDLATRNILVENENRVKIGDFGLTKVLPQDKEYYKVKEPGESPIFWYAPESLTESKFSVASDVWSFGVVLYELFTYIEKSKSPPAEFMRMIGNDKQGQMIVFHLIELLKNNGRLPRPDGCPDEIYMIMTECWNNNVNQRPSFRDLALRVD
Sequence of JAK1 (recombinant purified GST-tagged catalytic domain) (P23458 875-1153): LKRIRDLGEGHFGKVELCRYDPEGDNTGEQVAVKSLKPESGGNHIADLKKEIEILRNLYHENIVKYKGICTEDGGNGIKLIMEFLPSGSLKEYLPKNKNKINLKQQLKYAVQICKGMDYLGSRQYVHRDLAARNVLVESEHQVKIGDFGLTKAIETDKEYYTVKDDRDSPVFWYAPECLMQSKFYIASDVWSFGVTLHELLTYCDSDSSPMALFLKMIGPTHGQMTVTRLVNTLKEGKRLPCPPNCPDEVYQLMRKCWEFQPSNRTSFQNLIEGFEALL

As usually defined, the IC50 is the concentration at which inhibition is half-maximal. Consider `N#C[C@H]1CCCC[C@@H]1n1cc(C(N)=O)c(Nc2ccc(S(=O)(=O)NCc3cccnc3)cc2)n1` (single isomer, unassigned) [Example 17-84, 1-[(1R,2R or 1S,2S)-2-cyanocyclohexyl]-3-({4-[(pyridin-3-ylmethyl)sulfamoyl]phenyl}amino)-1H-pyrazole-4-carboxamide], for which the concentration for half-maximal inhibition (IC50) was determined as 0.3 nM in assay [1] and 1 nM in assay [2].

`COCC(C)N(C)[C@H]1CCC(n2cc(C(N)=O)c(Nc3ccc(Cl)cc3)n2)[C@@H](C#N)C1` (single isomer, unassigned) [Example 28-240, 3-[(4-chlorophenyl)amino]-1-[(1S,2S,4S or 1R,2R,4R)-2-cyano-4-{[(1S or 1R)-2-methoxy-1-methylethyl](methyl)ami-no}cyclohexyl]-1H-pyrazole-4-carboxamide]: the figures for the IC50 in assay [1] and in assay [2] were 2 nM and 27 nM, respectively.

On to `N#C[C@H]1CCCC[C@@H]1n1cc(C(N)=O)c(Nc2ccc(Cl)cc2)n1` (single isomer, unassigned) [Example 17-108, 3-[(4-chlorophenyl)amino]-1-[(1S,2S or 1R,2R)-2-cyanocyclohexyl]-1H-pyrazole-4-carboxamide], for which the half-inhibitory concentration (IC50) in assay [1] turned out to be 8 nM; in assay [2], 120 nM.

As to `N#C[C@H]1CCCC[C@@H]1n1cc(C(N)=O)c(Nc2ccc(Cl)cc2)n1` (racemic) [Example 17-104, 3-[(4-chlorophenyl)amino]-1-[(1S,2S and 1R,2R)-2-cyanocyclohexyl]-1H-pyrazole-4-carboxamide], the IC50 was found to be 2 nM in assay [1] and 25 nM in assay [2].

Regarding `N#C[C@H]1C[C@@H](NC2(CO)CC2)CCC1n1cc(C(N)=O)c(Nc2ccc(Cl)cc2)n1` (single isomer, unassigned) [Example 28-223, 3-[(4-chlorophenyl)amino]-1-[(1S,2S,4S or 1R,2R,4R)-2-cyano-4-{[1-(hydroxymethyl)cyclopropyl]a-mino}cyclohexyl]-1H-pyrazole-4-carboxamide], the IC50 in assay [1] is 2 nM; in assay [2], 14 nM.

Take `N#C[C@H]1CC(N2CC[C@H](F)C2)CC[C@@H]1n1cc(C(N)=O)c(Nc2ccc(S(=O)(=O)C(F)(F)F)cc2)n1` (single isomer, unassigned) [Example 28-158, 1-{(1S,2S or 1R,2R)-2-cyano-4-[(3S)-3-fluoropyrrolidin-1-yl]cyclohexyl}-3-({4-[(trifluoro-methyl)sulfonyl]phenyl}amino)-1H-pyrazole-4-carboxamide]: the IC50 was found to be 1 nM in assay [1] and 17 nM in assay [2].

For `N#C[C@H]1CCCC[C@@H]1n1cc(C(N)=O)c(Nc2ccc(C(F)(F)F)nc2)n1` (single isomer, unassigned) [Example 17-109, 1-[(1S,2S or 1R,2R)-2-cyanocyclohexyl]-3-{[6-(trifluoromethyl)pyridin-3-yl]amino}-1H-pyrazole-4-carboxamide], the values for the IC50 in assay [1] and in assay [2] were 50 nM and 260 nM, respectively.

As to `CC(C)(O)[C@H]1CC[C@H](n2cc(C(N)=O)c(Nc3ccc(Cl)cc3)n2)[C@@H](C#N)C1` (single isomer, unassigned) [Example 36-2, 3-(4-chlorophenylamino)-1-((1R,2R,4R or 1S,2S,4S)-2-cyano-4-(2-hydroxypropan-2-yl)cyclohexyl)-1H-pyrazole-4-carboxamide], the IC50 in assay [1] is 3 nM; in assay [2], 20 nM.

Turning to `N#C[C@H]1C[C@H](NCC2(O)CC2)CC[C@@H]1n1cc(C(N)=O)c(Nc2ccc(C(F)(F)F)cc2)n1` (single isomer, unassigned) [Example 28-35, 1-[(1S,2S,4R or 1R,2R,4S)-2-cyano-4-{[(1-hydroxycyclo-propyl)methyl]amino}cyclo-hexyl]-3-{[4-(trifluoro-methyl)phenyl]amino}-1H-pyrazole-4-carboxamide], the IC50 in assay [1] is 1 nM; in assay [2], 48 nM.

As to `N#C[C@H]1C[C@H](O)CC[C@@H]1n1cc(C(N)=O)c(Nc2ccc([C@@H](O)C(F)(F)F)cc2)n1` (single isomer, unassigned) [Example 25-15, 1-[(1S,2S,4R or 1R,2R,4S)-2-cyano-4-hydroxycyclohexyl]-3-({4-[(1R or 1S)-2,2,2-trifluoro-1-hydroxyethyl]phenyl}amino)-1H-pyrazole-4-carboxamide], the values for the IC50 in assay [1] and in assay [2] were 0.3 nM and 3 nM, respectively.

With `CN([C@@H]1CC[C@H](n2cc(C(N)=O)c(Nc3ccc(Cl)cc3)n2)[C@@H](C#N)C1)S(C)(=O)=O` (racemic) [Example 38-5, 3-[(4-chlorophenyl)amino]-1-{(1S,2S,4R and 1R,2R,4S)-2-cyano-4-[methyl(methylsulfonyl)amino]cyclohexyl}-1H-pyrazole-4-carboxamide], the half-maximal inhibitory concentration (IC50) in assay [1] amounted to 12 nM; in assay [2], 46 nM.

Turning to `N#C[C@H]1C[C@H](NCc2ccccc2)CC[C@@H]1n1cc(C(N)=O)c(Nc2ccnc(F)c2)n1` (single isomer, unassigned) [Example 28-123, 1-[(1S,2S,4R or 1R,2R,4S)-4-(benzylamino)-2-cyanocyclohexyl]-3-[(2-fluoropyridm-4-yl)amino]-1H-pyrazole-4-carboxamide], the IC50 was 2 nM in assay [1] and 56 nM in assay [2].

Turning to `N#C[C@H]1C[C@@H](O)CC[C@@H]1n1cc(C(N)=O)c(Nc2ccc(C(F)(F)F)nc2)n1` (single isomer, unassigned) [Example 33-9, 1-[(1S,2S,4S or 1R,2R,4R)-2-cyano-4-hydroxycyclohexyl]-3-{[6-(trifluoromethyl)pyridin-3-yl]amino}-1H-pyrazole-4-carboxamide], the IC50 is 21 nM in assay [1] and 65 nM in assay [2].

As for `CO/N=C(\C)c1ccc(Nc2nn([C@H]3CCCC[C@@H]3C#N)cc2C(N)=O)cc1` (single isomer, unassigned) [Example 40, 1-[(1S,2S or 1R,2R)-2-Cyanocyclohexyl]-3-{[4-(N-methoxyethanimidoyl)phenyl]amino}-1H-pyrazole-4-carboxamide], the IC50 in assay [1] turned out to be 0.35 nM; in assay [2] it was 2 nM.

`N#C[C@H]1CCCC[C@@H]1n1cc(C(N)=O)c(Nc2ccc(S(=O)(=O)Nc3ccncc3)cc2)n1` (single isomer, unassigned) [Example 17-81, 1-[(1R,2R or 1S,2S)-2-cyanocyclohexyl]-3-{[4-(pyridin-4-ylsulfamoyl)phenyl]amino}-1H-pyrazole-4-carboxamide]: the results for the IC50 in assay [1] and in assay [2] were 0.35 nM and 2 nM, respectively.

Turning to `CC(C)(C)NC(=O)[C@@H]1CC[C@@H](n2cc(C(N)=O)c(Nc3ccc(Cl)cc3)n2)[C@H](C#N)C1` (single isomer, unassigned) [Example 35-35, 1-[(1R,2R,4R or 1S,2S,4S)-4-(tert-butylcarbamoyl)-2-cyanocyclohexyl] 3-[(4-chlorophenyl)amino]-1H-pyrazole-4-carboxamide], the IC50 in assay [1] was found to be 47 nM; in assay [2], 425 nM.

On to `C[C@H](N[C@@H]1CC[C@H](n2cc(C(N)=O)c(Nc3ccc(OC(F)(F)F)cc3)n2)[C@@H](C#N)C1)C1CC1` (single isomer, unassigned) [Example 28-55, 1-[(1S,2S,4R or 1R,2R,4S)-2-cyano-4-{[(1S)-1-cyclopropylethyl]amino}cyclo-hexyl]-3-{[4-(trifluoromethoxy)phenyl]amino}-1H-pyrazole-4-carboxamide], for which the IC50 in assay [1] amounted to 4 nM; in assay [2], 200 nM.

Take `C[N+]1([C@H]2CC[C@H](n3cc(C(N)=O)c(Nc4ccc(C(F)(F)F)cc4)n3)[C@@H](C#N)C2)CCC1` (single isomer, unassigned) [Example 31-1, 1-((1S,3S,4S or 1R,3R,4R)-4-(4-carbamoyl-3-((4-(trifluoromethyl)phenyl)amino)-1H-pyrazol-1-yl)-3-cyanocyclohexyl)-1-methylazetidin-1-ium 2,2,2-trifluoroacetate]: the IC50 turned out to be 0.3 nM in assay [1] and 33 nM in assay [2].

For the molecule `CC(C)(c1ccc(Nc2nn([C@H]3CC[C@H](O)C[C@@H]3C#N)cc2C(N)=O)cc1)C(O)C(F)(F)F` (single isomer, unassigned) [Example 33-15, 1-[(1S,2S,4S or 1R,2R,4R)-2-cyano-4-hydroxycyclohexyl]-3-{[4-(3,3,3-trifluoro-(2R or 2S)-hydroxy-1,1-dimethylpropyl)phenyl]amino}-1H-pyrazole-4-carboxamide], the IC50 in assay [1] worked out at 0.5 nM; in assay [2], 2 nM.

Take `N#C[C@H]1CCCCC1n1cc(C(N)=O)c(Nc2ccc(S(=O)(=O)CF)cc2)n1` (mixture of isomers) [Example 17-65, 1-[(1S,2S and 1R,2R)-2-cyanocyclohexyl]-3-({4-[(fluoromethyl)sulfonyl]phenyl}amino)-1H-pyrazole-4-carboxamide]: the values for the IC50 in assay [1] and in assay [2] were 0.16 nM and 2 nM, respectively.

As to `N#C[C@H]1C[C@H](OCC2CC2)CC[C@H]1n1cc(C(N)=O)c(Nc2ccnc(F)c2)n1` (single isomer, unassigned) [Example 26-3, 1-[(1R,2S,4R or 1S,2R,4S)-2-cyano-4-(cyclopropylmethoxy)cyclohexyl]-3-[(2-fluoropyridin-4-yl)amino]-1H-pyrazole-4-carboxamide], the values for the IC50 in assay [1] and in assay [2] were 69 nM and 150 nM, respectively.

`N#C[C@H]1C[C@@H](N2CCC2)CC[C@@H]1n1cc(C(N)=O)c(Nc2ccc(C(F)(F)F)cc2)n1` (single isomer, unassigned) [Example 28-1, 1-((1S,2S,4S or 1R,2R,4R)-4-(azetidin-1-yl)-2-cyanocyclohexyl)-3-((4-(trifluoromethyl)phenyl)amino)-1H-pyrazole-4-carboxamide]: the IC50 in assay [1] was 0.4 nM; in assay [2] it was 23 nM.

With `CN(C)CC1CCC(n2cc(C(N)=O)c(Nc3ccc(F)cc3)n2)[C@H](C#N)C1` (mixture of isomers) [Example 10, 1-((1R,2R and 1S,2S)-2-Cyano-4-((dimethylamino)methyl)cyclohexyl)-3-((4-fluorophenyl)amino)-1H-pyrazole-4-carboxamide], the IC50 was determined as 11 nM in assay [1] and 357 nM in assay [2].

(Values after patent US8962608B2, “Cycloalkylnitrile pyrazole carboxamides as janus kinase inhibitors” (Merck Sharp & Dohme Corp., priority 2011, dated 2015).)
